From US7115721B2, “Microorganism, its product and utilization thereof” (Astellas Pharma Inc., priority 2002, dated 2006)
Converted amounts (≈) assume the structure as drawn. Read-outs that look alike come from different tables or passages of the source.

Legend:
[1] = molecular target: Tyrosinase originating from mushroom; assay: Inhibitory activity to tyrosinase originating from mushroom; format: biochemical; conditions: L-dopa substrate, pH 6.8, 25° C., 10 minutes
Protocol: Inhibitory Activity to Tyrosinase Originating from Mushroom Tyrosinase originating from mushroom (Sigma company) was dissolved in a 0.05 M phosphate buffer (pH 6.8) to a concentration of 20 U/ml. L-dopa was adjusted to a concentration of 0.3 mg/ml with a 0.05 M phosphate buffer (pH 6.8). A 96-well plate was charged with 30 μl of the L-dopa solution and 30 μl of solutions of the compound (I) of the present invention at various concentrations, immediately followed by mixing with 30 μl of the tyrosinase solution originating from mushroom. After incubation at 25° C. for 10 minutes, the absorbance at 450 nm was measured using a microplate reader.

[2] = tested on: melanin pigmentation of skin after exposure to sunlight; assay: Whitening effect on skin of subjects exposed to sunlight; format: in vivo, human; conditions: for Whitening effect: applied morning and evening over four weeks, 20 subjects
Protocol: The whitening effect of the compound (I) of the present invention was measured according to the following method. 20 subjects were exposed to sunlight for […] from 11:00 a.m. to 1:00 p.m. over two days in summer. Five days after the exposure to sunlight, a water phase and an alcohol phase having compositions respectively shown in FIG. 5 and FIG. 6 were mixed and dissolved, and the solution was applied to the skin on the medial side of the upper arm of each exposed subject once for every morning and evening over four weeks. [table] [table] After four weeks, the whitening effect was judged for each subject. The effect was judged according to the following standards.

[3] = tested on: B16 melanoma (B-16/2D2 cells); assay: Inhibitory activity to melanogenesis of B16 melanoma (extracellular and intracellular melanin, amount of proteins); format: cell-based; conditions: for IC50: Mus musculus, B16, 120 h
Protocol: Inhibitory Activity to Melanogenesis of B16 Melanoma
(§1) About 2.0×10^5/ampoule B16 melanoma cell strain preserved in a frozen state in liquid nitrogen was dissolved in a water bath at 37° C. and immediately suspended in 10 ml of a culture medium. After centrifugation at 800 rpm for five minutes, the supernatant liquid was discarded and the cells were suspended in 10 ml of a fresh culture medium. The suspension was again centrifuged under the same conditions, the supernatant liquid was discarded, and the cells were again suspended in a fresh culture medium.
(§2) About 4.0×10^5 cells were seeded in a 75 cm^2 flask. The cells were cultured at 37° C. in a 5% CO2 atmosphere for one week while replacing the medium every 2–3 days. The culture medium in which the cells have grown to bring the medium into a subconfluent state was discarded. The surface of the cultured cells was washed with PBS(−), following which the cells were stripped using 0.25% trypsin. A medium containing serum was added to terminate the trypsin reaction. After loosening the cells by pipetting, the cell suspension was transferred to a centrifugal tube. After centrifugation at 800 rpm for five minutes, the supernatant liquid was discarded and the cells were suspended in a fresh culture medium (not containing phenol red). The number of cells was counted using a cytometer.
The cell suspension was diluted with a medium (not containing phenol red) to make the cell concentration 2×10^5 cells/ml. The resulting suspension was seeded in a 96-well plate in an amount of 100 μl/well. The cells were incubated at 37° C. in a 5% CO2 atmosphere for one day. Solutions of the compound (I) of the present invention at various concentrations were prepared in a medium (not containing phenol red). The resulting solutions were added to a 96-well plate in an amount of 100 μl/well. The cells were incubated at 37° C. in a 5% CO2 atmosphere for five days and evaluated according to the following method.
1. Amount of Extracellular Melanin
The culture medium was transferred to an assay plate in an amount of 150 μl/well while taking care so that foam was not produced to measure OD450 using a microplate reader.
2. Amount of Intracellular Melanin
The plate containing the cells was inverted to discard the remaining culture medium. 0.1 N NaOH-0.1% Triton X-100 was added in an amount of 150 μl/well to dissolve the cells by pipetting. The culture medium was transferred to an assay plate in an amount of 100 μl/well to measure OD450 using a microplate reader.
Distilled water was added to the assay plate in an amount of 156 μl/well. Then, 4 μl/well of the cell solution remaining after measuring the amount of intracellular melanin was added. Next, 40 μl/well of a Bio-rad protein assay die solution was added, followed by shaking for two minutes. After allowing to stand for five minutes, OD590 was measured using a microplate reader.

[4] = molecular target: T1, tyrosinase originating from B16 melanoma (Mus musculus, UniProt P11344); assay: Inhibitory activity to tyrosinase originating from B16 melanoma; format: biochemical; conditions: crude enzyme solution, L-dopa substrate, pH 6.8, 25° C., two hours
T1 construct: The supernatant liquid was collected and preserved in ice until the time it was used (crude enzyme solution); endogenous in cells; host or cells: B16 melanoma cells, homogenate supernatant (crude enzyme solution)
T1 sequence (P11344 19-533): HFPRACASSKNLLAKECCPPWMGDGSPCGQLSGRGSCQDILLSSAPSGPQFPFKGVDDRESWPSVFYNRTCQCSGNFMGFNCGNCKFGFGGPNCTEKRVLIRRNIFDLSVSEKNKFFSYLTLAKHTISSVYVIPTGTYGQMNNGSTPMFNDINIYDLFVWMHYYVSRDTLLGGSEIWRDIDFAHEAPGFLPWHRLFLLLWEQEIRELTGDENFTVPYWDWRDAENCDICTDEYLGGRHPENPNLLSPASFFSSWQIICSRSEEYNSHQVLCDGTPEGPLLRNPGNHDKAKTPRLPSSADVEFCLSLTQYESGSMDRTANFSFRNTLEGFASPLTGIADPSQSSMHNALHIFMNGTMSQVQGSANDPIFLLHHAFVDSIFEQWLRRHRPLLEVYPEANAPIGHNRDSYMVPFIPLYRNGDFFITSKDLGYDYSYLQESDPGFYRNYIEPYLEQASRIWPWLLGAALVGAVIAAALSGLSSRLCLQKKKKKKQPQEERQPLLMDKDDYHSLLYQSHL
Protocol: Inhibitory Activity to Tyrosinase Originating from B16 Melanoma
as §1
as §2, with “After centrifugation at 800 rpm for five minutes, the supernatant liquid was discarded and the cells were suspended in a fresh culture medium (not containing phenol red).” left out, “cytometer. […]” for “cytometer.”
L-dopa was adjusted to a concentration of 0.8 mg/ml with the 0.05 M phosphate buffer (pH 6.8). […] Then, the absorption at 475 nm was measured.

[5] = concentration in which whitening actions were clearly exhibited

With `[C-]#[N+]/C=C/c1ccc(O[C@@H]2O[C@@H](C)[C@H](O)[C@@H](O)[C@H]2O)cc1` [Compound (I), (E)-4-(2-isocyanovinyl)phenyl α-L-rhamnopyranoside] the “IC50 Mushroom tyrosinase” value [1] was 0.0019 µg/mL (≈ 0.00652 µM), the Whitening effect ([2]; 0.1 wt % test agent) was “Good (50–80% of subjects exhibited a complete response or partial response)” and the Whitening effect ([2]; 0.3 wt % test agent) was “Good (50–80% of subjects exhibited a complete response or partial response)”. The “Abnormalities of the skin (erythema, edema) or side effects” value ([2]; topical application over four weeks in subjects) was “neither abnormalities of the skin, such as erythema or edema, nor any side effects”, the IC50 ([3]; read-out: IC50 Extracellular melanogenesis) was 0.052 µg/mL (≈ 0.179 µM) and the IC50 ([3]; read-out: IC50 Intracellular melanogenesis) was 0.074 µg/mL (≈ 0.254 µM). The IC50 ([3]; read-out: IC50 Protein synthesis) was 0.9 µg/mL (≈ 3.09 µM), the “Effects on the amount of proteins in the cells” value [3, 5] was “nor were there any effects” and the “Effects on the number of grown cells” value [3, 5] was “nor were there any effects”. For the same compound, the “Morphological changes in the cells by microscopic inspection” value [3, 5] was “no morphological changes” and the IC50 [4] was 1.85 nM.
`Oc1ccc(O)cc1` [Hydroquinone, reference compound] was tested, and the Whitening effect ([2]; 1.0 wt % test agent) was “Good (50–80% of subjects exhibited a complete response or partial response)”.
With `O=c1cc(CO)occ1O` [Kojic acid, reference compound] the Whitening effect ([2]; 1.0 wt % test agent) was “Fair (30–50% of subjects exhibited a complete response or partial response)”.
